Assay in all cases: NCI anticancer screen, dose series, 48 h
The test system of test [1] is COLO 205 colon.
Test [2] concerns OVCAR-8 ovarian.
The subject of test [3] is SNB-19 CNS.
Test [4] has as its system MOLT-4 leukemia.
For test [5], the system named is UACC-257 melanoma.
For test [6], the system named is HCC-2998 colon.
Test [7] relates to OVCAR-5 ovarian.
Test [8] concerns U251 CNS.
For test [9], the system named is SR leukemia.

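Five concentrations, 48 hours, 96-well plates. Abbreviation: GI50, concentration required for 50% inhibition of growth. The concentration for full growth arrest is given as TGI.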 Bounds are passed on as bounds.

Take `COC1=CC(=O)C(Br)=CC1=O`: the TGI in test [1] is 31 µM; in [2], 65.8 µM; in test [3], 32.9 µM; in test [4] it was 10.4 µM; in test [5] it was 31.1 µM; in test [6] it was greater than 100 µM.

For the compound `O=C(N/C(=C\c1c(O)ccc2ccccc12)c1nc2ccccc2[nH]1)c1ccccc1`, the TGI in test [7], in test [1], in [2], in test [8], in [3] and in test [4] was greater than 100 µM throughout. Also, the TGI in test [5] and in test [6] was greater than 100 µM in each case.

Regarding `Cn1cnc([N+](=O)[O-])c1Sc1nnnn1C`, the TGI in test [7] is 45.2 µM; in test [1] it was 25.3 µM; in [2], 33.2 µM; in [8], 34.1 µM; in [3], greater than 100 µM; in test [4], 33.7 µM. Moreover, the TGI amounted to 29.8 µM in test [5], 51.2 µM in test [6] and 28.2 µM in [9].

Regarding `CCN(CCCl)CCCCCNc1c2ccccc2nc2ccc(OC)cc12`, the TGI in [7] is 5.39 µM; in test [1] it was 3.03 µM; in test [2], 1.96 µM; in test [8], 2.23 µM; in [3] it was 3.78 µM; in [4], 0.279 µM. The TGI in test [5] came out at 10.8 µM; in test [6] it was 2.94 µM.

With `O=C(O)C(Br)C(Br)C(=O)O` (stereo unspecified), the TGI in test [7], in test [1], in [2], in [8], in test [3] and in test [5] was greater than 100 µM throughout. Moreover, the TGI in test [6] and in [9] was greater than 100 µM in each case.

In the case of `CCC#CC[C@H](O)C/C=C1/C(=O)C=C[C@@H]1C/C=C\CCCC(=O)OC`, the GI50 in test [7] was 1.81 µM; in [1], 1.14 µM; in [2], 1.24 µM; in test [8] it was 0.695 µM; in test [3] it was 3.29 µM; in [4] it was 0.78 µM. The results for the GI50 in [5], in [6] and in [9] were 0.856 µM, 1.07 µM and 0.278 µM, respectively. Further, the TGI in [7] was found to be 7.88 µM; in test [1], 2.86 µM; in [2], 4.76 µM; in test [8], 1.99 µM; in [3], 10.3 µM; in test [4] it was 7.17 µM. Further, the TGI in test [5] came to 2.43 µM; in [6], 1.89 µM; in [9] it was 38.2 µM.

Turning to `Cc1ccc(NC(=O)C(=O)C(C(=O)c2ccc3ccccc3c2)C2OC(=O)c3ccccc32)c(C)c1` (stereo unspecified), the TGI in [7] stood at 36.5 µM; in test [1] it was 25.2 µM; in test [2] it was 36.8 µM; in [8] it was 17.2 µM; in test [4] it was 23.7 µM; in test [5], 41.4 µM. Moreover, the TGI in [6] is 21.1 µM.

On to `COc1cc(O)c(C(=O)CC(C)=O)c(OC)c1`, for which the TGI in test [7], in test [1], in [2], in test [8], in test [3] and in [4] was greater than 100 µM in each case. The TGI in test [5] and in test [6] was greater than 100 µM in each case.

With `CCCN(CCC)CCc1cc(C(C)=O)n(S(=O)(=O)c2ccc(C)cc2)c1`, the TGI in [7], in test [1], in [2], in test [8], in test [3] and in test [4] was greater than 100 µM throughout. Further, the TGI in test [5], in [6] and in test [9] was greater than 100 µM each time.

Regarding `O=C1NC(O)c2ccccc2O1` (stereo unspecified), the TGI in [7], in test [1], in test [2], in [8], in test [3] and in test [4] was greater than 100 µM in each case. Further, the TGI in test [5], in [6] and in [9] was greater than 100 µM throughout.

As for `CN(C)CCNC(=O)c1cccc2nc3ccc4cccnc4c3nc12`, the TGI was determined as 2.67 µM in test [7]; 1.55 µM in test [1]; 7.42 µM in test [2]; 4.39 µM in test [8]; 6.75 µM in test [3]; 0.763 µM in [4]. For the same compound, the values for the TGI in [5] and in test [6] were 1.63 µM and 2.12 µM, respectively.

With `COc1cccc2c1C(=O)c1c(O)c3c(c(O)c1C2=O)C[C@@](O)(C(C)=O)C[C@@H]3OC1CC([N+]([O-])(Cc2ccccc2)Cc2ccccc2)C(O)C(C)O1` (stereo partly specified), the TGI in [7] came to 3.22 µM; in test [2], 14.9 µM; in test [8] it was 2.48 µM; in test [3], 15.8 µM; in test [5], 3.17 µM; in test [6], 3.07 µM.

On to `CSC(=Nc1ccccc1Cl)NC(=O)c1ccc(Br)cc1`, for which the TGI in test [7] is greater than 100 µM; in test [1], greater than 100 µM; in test [2], greater than 100 µM; in test [8], greater than 100 µM; in test [3], greater than 100 µM; in test [4] it was 54.9 µM. Moreover, the TGI in test [5], in [6] and in [9] was greater than 100 µM in each case.

Regarding `NCCOCn1cc(Cc2cccc(OCc3ccccc3)c2)c(=O)[nH]c1=O`, the TGI in test [1], in test [2], in test [8], in [3], in [4] and in test [6] was greater than 100 µM each time.

With `CCC[CH2][Sn]([CH2]CCC)([CH2]CCC)[O]C(=O)C(OC(C)=O)c1ccccc1` (stereo unspecified), the GI50 was 0.086 µM in test [7]; 0.18 µM in test [1]; 0.167 µM in test [2]; 0.14 µM in test [8]; 0.176 µM in [3]; 0.0539 µM in [4]. Further, the results for the GI50 in test [5] and in test [6] were 0.149 µM and 0.0999 µM, respectively. Further, the TGI in test [7] stood at 0.222 µM; in test [1] it was 0.321 µM; in test [2], 0.304 µM; in test [8] it was 0.27 µM; in test [3], 0.322 µM; in [4], 0.42 µM. For the same compound, the TGI was 0.284 µM in test [5] and 0.216 µM in test [6].

In the case of `O=C(Nc1cc(Cl)ccc1Cl)c1cc2cccc(Br)c2oc1=O`, the TGI in test [1], in test [2], in test [8], in test [3], in [4] and in test [5] was greater than 100 µM throughout.

In the case of `S=c1nc(C(c2ccccc2)c2ccccc2)[nH][nH]1`, the TGI in test [7], in test [1], in test [2], in [8], in test [3] and in [4] was greater than 100 µM throughout. Besides, the TGI in [5] and in test [6] was greater than 100 µM in each case.

Consider `CCO/C(CCn1[nH]c(=O)c(Cl)c(Cl)c1=O)=N\NC(=O)C(=O)NN`, for which the TGI in test [7], in [1], in test [2], in test [8], in [3] and in [4] was greater than 100 µM throughout. The TGI in [5] and in test [6] was greater than 100 µM throughout.

`O=c1/c(=C/c2c(O)ccc3ccccc23)sc2nc3ccccc3n12`: the TGI in test [7], in test [1], in test [2], in test [8], in [3] and in [5] was greater than 100 µM in each case. Also, the TGI in test [6] was greater than 100 µM.

Consider `CC(C)(CN1CCOCC1)C(=O)/C=C/c1ccc(/C=C/C(=O)C(C)(C)CN2CCOCC2)cc1`, for which the TGI in test [7] is 3.26 µM; in test [1] it was 3.01 µM; in [2] it was 7.52 µM; in [8], 2.63 µM; in [4] it was 0.694 µM; in test [6], 3.26 µM.

In the case of `Cc1cc(C)nc(NS(=O)(=O)c2ccc(Nc3c4ccccc4nc4c(C(=O)Nc5ccc(S(=O)(=O)Nc6cc(C)on6)cc5)ccc(Cl)c34)cc2)n1`, the TGI is 44.6 µM in test [7]; greater than 100 µM in [2]; 30.9 µM in test [8]; 48.9 µM in [3]; 49.1 µM in [4]; 91.3 µM in [5]. The TGI in test [6] was 32.6 µM; in test [9], 53.8 µM.

Consider `O=c1nc(NC(c2ccccc2)(c2ccccc2)c2ccccc2)ccn1CCCl`, for which the TGI in test [7] turned out to be 82.4 µM; in [1], 64.7 µM; in test [2], 29.7 µM; in [8], 28.7 µM; in test [3], 28.9 µM; in [4], 42.3 µM. The TGI in test [6] came to 28 µM; in test [9] it was 49.5 µM.

Values taken from PubChem BioAssay (NCI).
